From ChEMBL document CHEMBL3046358, “Multiple Pro-197 substitutions in the acetolactate synthase of rigid ryegrass (Lolium rigidum) and their impact on chlorsulfuron activity and plant growth” (Crop Prot, 2012)

Legend:
Lolium rigidum [1] = experiment: Herbicidal activity against Lolium rigidum accession A15 assessed as fresh weight reduction applied at 4 times pre-emergence recommended rate relative to untreated control; type: functional; parameters: scale not given: the % may be the effect or the level left
Lolium rigidum [2] = experiment: Herbicidal activity against Lolium rigidum accession A15 assessed as emergence rate applied at 4 times pre-emergence recommended rate relative to untreated control; type: functional
Lolium rigidum [3] = experiment: Herbicidal activity against Lolium rigidum accession A14 assessed as emergence rate applied at 4 times pre-emergence recommended rate relative to untreated control; type: functional
Lolium rigidum [4] = experiment: Herbicidal activity against Lolium rigidum accession A13 assessed as emergence rate applied at 4 times pre-emergence recommended rate relative to untreated control; type: functional
Lolium rigidum [5] = experiment: Herbicidal activity against Lolium rigidum accession A12 assessed as emergence rate applied at 4 times pre-emergence recommended rate relative to untreated control; type: functional
Lolium rigidum [6] = experiment: Herbicidal activity against Lolium rigidum accession A09 assessed as emergence rate applied at 4 times pre-emergence recommended rate relative to untreated control; type: functional
Lolium rigidum [7] = experiment: Herbicidal activity against Lolium rigidum accession A06 assessed as emergence rate applied at 4 times pre-emergence recommended rate relative to untreated control; type: functional
Lolium rigidum [8] = experiment: Herbicidal activity against Lolium rigidum accession A05 assessed as emergence rate applied at 4 times pre-emergence recommended rate relative to untreated control; type: functional
Lolium rigidum [9] = experiment: Herbicidal activity against Lolium rigidum accession A04 assessed as emergence rate applied at 4 times pre-emergence recommended rate relative to untreated control; type: functional
Lolium rigidum [10] = experiment: Herbicidal activity against Lolium rigidum accession A03 assessed as emergence rate applied at 4 times pre-emergence recommended rate relative to untreated control; type: functional
[11] = target: T1, Acetolactate synthase (Lolium rigidum) (UniProt A7XBP7); experiment: Resistance index, ratio of I50 for acetolactate synthase Ser-197/Ser-197 mutant in Lolium rigidum accession A21 leaves extracts to I50 for acetolactate synthase in Lolium rigidum accession A01 leaves extracts
T1 sequence (whole entry): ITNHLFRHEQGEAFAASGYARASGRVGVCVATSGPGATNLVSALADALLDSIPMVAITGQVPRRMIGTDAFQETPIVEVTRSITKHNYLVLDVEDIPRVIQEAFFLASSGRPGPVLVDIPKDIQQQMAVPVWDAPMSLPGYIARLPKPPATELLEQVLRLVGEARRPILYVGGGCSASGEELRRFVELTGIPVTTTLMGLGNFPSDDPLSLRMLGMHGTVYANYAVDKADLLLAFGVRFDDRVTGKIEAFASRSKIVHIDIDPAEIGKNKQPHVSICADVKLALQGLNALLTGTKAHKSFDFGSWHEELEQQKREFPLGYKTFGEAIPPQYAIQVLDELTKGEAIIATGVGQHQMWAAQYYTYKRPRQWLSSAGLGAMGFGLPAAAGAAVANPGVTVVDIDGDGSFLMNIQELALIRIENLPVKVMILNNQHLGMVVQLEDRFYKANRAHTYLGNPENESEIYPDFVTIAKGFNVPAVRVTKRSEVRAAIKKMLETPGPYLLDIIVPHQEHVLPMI

Acetolactate synthase [12] = target: T2, Acetolactate synthase (Lolium rigidum, UniProt A7XBP7); experiment: Inhibition of acetolactate synthase Ala-197/Ala-197 mutant in Lolium rigidum accession A19 leaves extracts by acetolactate production assay; settings: read-out: I50
Acetolactate synthase [13] = target: T2, Acetolactate synthase; experiment: Inhibition of acetolactate synthase Leu-197/Leu-197 mutant in Lolium rigidum accession A18 leaves extracts by acetolactate production assay; settings: read-out: I50
Acetolactate synthase [14] = target: Acetolactate synthase (Lolium rigidum, UniProt A7XBP7, P197R/P197S); experiment: Inhibition of acetolactate synthase Pro-197/Arg-197 or Pro-197/Ser-197 or Pro/Val or Ala/Leu mutant in Lolium rigidum accession A17 leaves extracts by acetolactate production assay; settings: read-out: I50
Acetolactate synthase [15] = target: T2, Acetolactate synthase; experiment: Inhibition of acetolactate synthase Pro-197/Pro-197 mutant in Lolium rigidum accession A11 leaves extracts by acetolactate production assay; settings: read-out: I50
Lolium rigidum [16] = experiment: Herbicidal activity against Lolium rigidum accession A04 assessed as emergence rate applied at 1 times pre-emergence recommended rate applied in pots where terbufos had been incorporated into the soil relative to untreated control; type: functional
Lolium rigidum [17] = experiment: Herbicidal activity against Lolium rigidum accession A15 assessed as emergence rate applied at 1 times pre-emergence recommended rate relative to untreated control; type: functional
Lolium rigidum [18] = experiment: Herbicidal activity against Lolium rigidum accession A10 assessed as emergence rate applied at 1 times pre-emergence recommended rate relative to untreated control; type: functional
Lolium rigidum [19] = experiment: Herbicidal activity against Lolium rigidum accession A09 assessed as emergence rate applied at 1 times pre-emergence recommended rate relative to untreated control; type: functional
Lolium rigidum [20] = experiment: Herbicidal activity against Lolium rigidum accession A06 assessed as emergence rate applied at 1 times pre-emergence recommended rate relative to untreated control; type: functional
Lolium rigidum [21] = experiment: Herbicidal activity against Lolium rigidum accession A03 assessed as emergence rate applied at 1 times pre-emergence recommended rate relative to untreated control; type: functional
Lolium rigidum [22] = experiment: Herbicidal activity against Lolium rigidum accession A02 assessed as emergence rate applied at 1 times pre-emergence recommended rate relative to untreated control; type: functional
Acetolactate synthase [23] = target: T2, Acetolactate synthase; experiment: Inhibition of acetolactate synthase Pro-197/Pro-197 mutant in Lolium rigidum accession A10 leaves extracts by acetolactate production assay; settings: read-out: I50
Acetolactate synthase [24] = target: Acetolactate synthase (Lolium rigidum, UniProt A7XBP7, P197L); experiment: Inhibition of acetolactate synthase Pro-197/Leu-197 mutant in Lolium rigidum accession A07 leaves extracts by acetolactate production assay; settings: read-out: I50
Lolium rigidum [25] = experiment: Herbicidal activity against Lolium rigidum accession A12 assessed as emergence rate applied at 1 times pre-emergence recommended rate applied in pots where terbufos had been incorporated into the soil relative to untreated control; type: functional
Lolium rigidum [26] = experiment: Herbicidal activity against Lolium rigidum accession A11 assessed as emergence rate applied at 1 times pre-emergence recommended rate applied in pots where terbufos had been incorporated into the soil relative to untreated control; type: functional
Lolium rigidum [27] = experiment: Herbicidal activity against Lolium rigidum accession A10 assessed as emergence rate applied at 1 times pre-emergence recommended rate applied in pots where terbufos had been incorporated into the soil relative to untreated control; type: functional
Lolium rigidum [28] = experiment: Herbicidal activity against Lolium rigidum accession A08 assessed as emergence rate applied at 1 times pre-emergence recommended rate applied in pots where terbufos had been incorporated into the soil relative to untreated control; type: functional
Lolium rigidum [29] = experiment: Herbicidal activity against Lolium rigidum accession A12 assessed as fresh weight reduction applied at 4 times pre-emergence recommended rate relative to untreated control; type: functional; parameters: scale not given: the % may be the effect or the level left
Lolium rigidum [30] = experiment: Herbicidal activity against Lolium rigidum accession A02 assessed as emergence rate applied at 4 times pre-emergence recommended rate relative to untreated control; type: functional
Lolium rigidum [31] = experiment: Herbicidal activity against Lolium rigidum accession A13 assessed as emergence rate applied at 1 times pre-emergence recommended rate applied in pots where terbufos had been incorporated into the soil relative to untreated control; type: functional
Lolium rigidum [32] = experiment: Herbicidal activity against Lolium rigidum accession A11 assessed as fresh weight reduction applied at 1 times pre-emergence recommended rate applied in pots where terbufos had been incorporated into the soil relative to untreated control; type: functional; parameters: scale not given: the % may be the effect or the level left
Lolium rigidum [33] = experiment: Herbicidal activity against Lolium rigidum accession A12 assessed as fresh weight reduction applied at 1 times pre-emergence recommended rate relative to untreated control; type: functional; parameters: scale not given: the % may be the effect or the level left
Lolium rigidum [34] = experiment: Herbicidal activity against Lolium rigidum accession A08 assessed as fresh weight reduction applied at 1 times pre-emergence recommended rate relative to untreated control; type: functional; parameters: scale not given: the % may be the effect or the level left
Lolium rigidum [35] = experiment: Herbicidal activity against Lolium rigidum accession A07 assessed as fresh weight reduction applied at 1 times pre-emergence recommended rate relative to untreated control; type: functional; parameters: scale not given: the % may be the effect or the level left

## COc1nc(C)nc(NC(=O)NS(=O)(=O)c2ccccc2Cl)n1 [CHLORSULFURON]
Lolium rigidum [1]
  Activity: 98%
Lolium rigidum [2]
  Activity: 2%
Lolium rigidum [3]
  Activity: 1%
Lolium rigidum [4]
  Activity: 1%
Lolium rigidum [5]
  Activity: 1%
Lolium rigidum [6]
  Activity: 1%
Lolium rigidum [7]
  Activity: 84%
Lolium rigidum [8]
  Activity: 90%
Lolium rigidum [9]
  Activity: 1%
Lolium rigidum [10]
  Activity: 1%
[11]
  Ratio: 53
Acetolactate synthase [12]
  IC50: 18600 nM
Acetolactate synthase [13]
  IC50: 1620 nM
Acetolactate synthase [14]
  IC50: 870 nM
Acetolactate synthase [15]
  IC50: 30 nM
Lolium rigidum [16]
  Activity: 2%
Lolium rigidum [17]
  Activity: 2%
Lolium rigidum [18]
  Activity: 68%
Lolium rigidum [19]
  Activity: 44%
Lolium rigidum [20]
  Activity: 89%
Lolium rigidum [21]
  Activity: 1%
Lolium rigidum [22]
  Activity: 2%
Acetolactate synthase [23]
  IC50: 40 nM
Acetolactate synthase [24]
  IC50: 1820 nM
Lolium rigidum [25]
  Activity: 0%
Lolium rigidum [26]
  Activity: 2%
Lolium rigidum [27]
  Activity: 3%
Lolium rigidum [28]
  Activity: 91%
Lolium rigidum [29]
  Activity: 99%
Lolium rigidum [30]
  Activity: 1%
Lolium rigidum [31]
  Activity: 0%
Lolium rigidum [32]
  Activity: 97%
Lolium rigidum [33]
  Activity: 95%
Lolium rigidum [34]
  Activity: 9%
Lolium rigidum [35]
  Activity: 0%
